Read-outs that look alike come from different tables or passages of the source.
What was measured:
FGFR4 kinases = target: T1, FGFR4 kinases (Homo sapiens, UniProt P22455); test: In vitro enzyme activity test, Z′-LYTE Assay, FGFR4 enzymatic reaction; type: biochemical; conditions: for IC50: Z′-LYTE detection, 150 μM ATP
T1 construct: purchased Life technology
Procedure: (§1) The inhibitory effects of the compounds on FGFR4 kinases were assessed by detecting the enzymatic activities through Z′-LYTE® Assay, with the IC50 value of the compound as the indicator. This activity test was performed by Life technology.
(§2) The test compounds were diluted in a concentration gradient of 3-times, the final concentrations were 10 concentrations ranging from 10 μM to 0.5 nM, with double hole for each concentration; the content of DMSO in the detection reaction was 1%.
FGFR4 Enzymatic Reaction:
[…] The detection plate was Bar-coded Corning, low volume NBS, black 384-well plate, reaction conducted at room temperature for 60 minutes, and the reaction system was 10μμL.
(§3) To the kinase reaction solution was added 5 μL Development reagent B (1:64) to stop the reaction and incubated at 23° C. for 60 minutes, reading the plate with Envision instrument.
(§4) Data was transformed into the phosphorylation rate and the inhibitory rate by curve fitting with Model 205 in XLFIT (iDBS) to obtain the IC50 data of the compounds. It was set as 0% if the bottom of the curve was not in the range of −20% to 20%; otherwise it was set as 100% if the top of the curve was not in the range of 70% to 130%.

FGFR1 protein kinase = target: T2, FGFR1 protein kinase (Homo sapiens, UniProt P11362); test: In vitro enzyme activity test, Z′-LYTE Assay, FGFR1 enzymatic reaction; type: biochemical; conditions: Z′-LYTE detection; 25 μM ATP
T2 construct: purchased Life technology
T2 sequence (P11362 22-822): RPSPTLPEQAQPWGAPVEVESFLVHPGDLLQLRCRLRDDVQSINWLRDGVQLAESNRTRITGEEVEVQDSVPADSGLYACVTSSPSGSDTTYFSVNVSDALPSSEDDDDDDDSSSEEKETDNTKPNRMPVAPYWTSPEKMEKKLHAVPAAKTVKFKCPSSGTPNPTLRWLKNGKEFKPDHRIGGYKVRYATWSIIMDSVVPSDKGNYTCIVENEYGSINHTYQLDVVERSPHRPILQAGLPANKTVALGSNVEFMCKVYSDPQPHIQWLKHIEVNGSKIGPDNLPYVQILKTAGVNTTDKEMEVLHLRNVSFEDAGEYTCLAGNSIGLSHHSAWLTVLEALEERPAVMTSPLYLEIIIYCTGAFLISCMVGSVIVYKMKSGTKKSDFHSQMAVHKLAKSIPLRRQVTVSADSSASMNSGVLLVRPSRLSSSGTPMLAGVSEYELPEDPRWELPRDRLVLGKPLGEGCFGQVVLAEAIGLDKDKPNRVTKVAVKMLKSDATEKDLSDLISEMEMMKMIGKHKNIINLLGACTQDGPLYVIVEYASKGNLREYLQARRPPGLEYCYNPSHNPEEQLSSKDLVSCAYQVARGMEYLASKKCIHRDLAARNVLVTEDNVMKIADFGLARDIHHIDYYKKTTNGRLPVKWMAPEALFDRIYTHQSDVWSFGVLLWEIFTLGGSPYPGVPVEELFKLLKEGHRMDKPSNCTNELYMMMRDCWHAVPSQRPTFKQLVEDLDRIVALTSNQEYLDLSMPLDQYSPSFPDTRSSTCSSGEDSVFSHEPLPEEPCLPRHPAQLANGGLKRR
Procedure: as §1, §2
FGFR1 Enzymatic Reaction:
1 nM FGFR1 protein kinase, 2 μM Tyr4 peptide, 25 μM ATP, 50 mM HEPES (pH 7.5), 10 mM MgCl2, 1 mM EGTA, 0.01% BRIJ-35, 2 mM MnCl2, 1 mM DTT. The detection plate was Black Proxiplate 384-Plus plate (PerkinElmer), reaction conducted at room temperature for 60 minutes, and the reaction system was 10μμL.
as §3, §4

[1] = Pharmacokinetic evaluation in mice (IV and oral gavage); type: in vivo, female Balb/c nude mice; conditions: for F (bioavailability; oral absorption ratio): PO gavage 10 mg/kg vs IV 2 mg/kg; for clearance: read-out: Cl (plasma clearance); for half-life: read-out: T1/2 (elimination half-life) (converted); for Vd: read-out: Vdss (steady-state apparent volume of distribution); for Cmax: read-out: Cmax (peak concentration); for Tmax: read-out: Tmax (time to peak)
Procedure: […] The test compound suspended in the corresponding solvent at 1 mg/ml was administered by gavage to female Balb/c nude mice (fasted overnight, at an age of 7-9 weeks), with a dosage of 10 mg/kg. Two groups of animals were both blood sampled about 30 μL from jugular vein or tail vein at 0.0833, 0.25, 0.5, 1.0, 2.0, 4.0, 6.0, 8.0 and 24 h post-administration, which was placed into an anticoagulant tube charged with EDTA-K2, and plasma was separated by centrifugation. Plasma concentrations were determined by LC-MS/MS process using WinNonlin™ Version 6.3 (Pharsight, Mountain View, Calif.) pharmacokinetic software, calculating the related pharmacokinetic parameters with a linear logarithmic trapezoidal method for […] models.

[2] = tested on: Hep3B Transplantation Models; test: Tumor growth inhibition (TGI), antitumor activity test of mice in vivo; conditions: 30 mg/kg BID, Hep3B transplantation model
Procedure: The evolutionary growth potential of a tumor was assessed by the relationship between the volume of the tumor and time. The long axis (L) and short axis (W) of a subcutaneous tumor were determined by a caliper twice a week, the tumor volume (TV) was calculated by the formula of ((L×W^2)/2). TGI was calculated by the difference value between the median of tumor volumes of mice in the solvent group and the median of tumor volumes of mice in the drug group, and represented by the percentage accounting for the median of tumor volumes in the solvent control group,
Calculated by the following formula: % TGI=((the median of tumor volume (control group)−the median of tumor volume (dosing group))/the median of tumor volume (control group))×100%
The original statistical analysis was completed by the analysis of repeated variance determination. Subsequently, multiple comparisons were performed by a Scheffe psot hoc experimental method. Single solvent (0.5% methylcellulose+1% aqueous solution of Tween) was the negative control.

[3] = mouse, plasma, IV tail vein 2 mg/kg, female Balb/c nude mice
[4] = mouse, plasma, PO gavage 10 mg/kg, female Balb/c nude mice
[5] = mouse, plasma, IV tail vein 0.2 mg/kg, female Balb/c nude mice

T1 sequence (P22455 22-802): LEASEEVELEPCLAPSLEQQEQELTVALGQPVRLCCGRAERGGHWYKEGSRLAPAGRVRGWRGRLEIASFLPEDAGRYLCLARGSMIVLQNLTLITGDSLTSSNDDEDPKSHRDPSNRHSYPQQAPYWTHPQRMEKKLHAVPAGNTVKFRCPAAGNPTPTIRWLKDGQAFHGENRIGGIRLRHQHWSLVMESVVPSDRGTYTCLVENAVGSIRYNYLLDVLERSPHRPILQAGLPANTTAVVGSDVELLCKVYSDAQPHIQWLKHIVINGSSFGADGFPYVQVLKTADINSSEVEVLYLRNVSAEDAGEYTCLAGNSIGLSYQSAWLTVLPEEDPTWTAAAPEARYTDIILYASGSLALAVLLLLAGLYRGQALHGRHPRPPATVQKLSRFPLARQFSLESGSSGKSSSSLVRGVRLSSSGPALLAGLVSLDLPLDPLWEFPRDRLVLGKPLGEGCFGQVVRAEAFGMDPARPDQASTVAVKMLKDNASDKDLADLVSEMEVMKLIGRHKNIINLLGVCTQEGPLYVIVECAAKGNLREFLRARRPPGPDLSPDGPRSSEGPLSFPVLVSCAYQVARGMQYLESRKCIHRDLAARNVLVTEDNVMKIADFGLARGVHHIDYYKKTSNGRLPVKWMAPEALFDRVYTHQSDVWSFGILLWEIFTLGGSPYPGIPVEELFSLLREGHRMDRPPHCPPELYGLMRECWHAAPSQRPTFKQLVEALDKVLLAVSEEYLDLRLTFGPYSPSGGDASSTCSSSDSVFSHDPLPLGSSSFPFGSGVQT

SMILES	IC50 (FGFR4 kinases) [nM]	IC50 (FGFR1 protein kinase) [nM]	further results
C=CC(=O)N[C@H]1COC[C@H]1Nc1ncc(OCc2c(Cl)c(OC)cc(OC)c2Cl)cn1 [Control example 8]			F (bioavailability; oral absorption ratio) ([1]; female Balb/c nude mice): 12.3%; AUC(0-t) [1, 3]: 1.8 µM·h; clearance [1, 3]: 39.7 mL/min/kg; half-life [1, 3]: 9.24 min; Vd [1, 3]: 0.407 L/kg; AUC(0-t) [1, 4]: 1.1 µM·h; Cmax [1, 4]: 2710 nM; Tmax [1, 4]: 15 min
C=CC(=O)N[C@@H]1COC[C@@H]1Nc1ncc(/C(F)=C/c2c(Cl)c(OC)cc(OC)c2Cl)cn1 [Example 32]	361		
C=CC(=O)Nc1cc(F)cc(C)c1Nc1ccc(/C=C(\F)c2c(Cl)c(OC)cc(OC)c2Cl)cn1 [Example 29]	268		
C=CC(=O)Nc1cc(F)c(F)cc1Nc1ccc(/C=C(\F)c2c(Cl)c(OC)cc(OC)c2Cl)cn1 [Example 22]	575		
C=CC(=O)N[C@H]1COC[C@H]1Nc1ncc(/C=C/c2c(Cl)c(OC)cc(OC)c2Cl)cn1 [Control example 3, reference compound]	408		
C=CC(=O)N[C@H]1CCOC[C@H]1Nc1ncc(OCc2c(F)c(OC)cc(OC)c2F)cn1 [Control example 4]			F (bioavailability; oral absorption ratio) ([1]; female Balb/c nude mice): 0%; AUC(0-t) [1, 3]: 0.958 µM·h; clearance [1, 3]: 77.1 mL/min/kg; half-life [1, 3]: 6.84 min; Vd [1, 3]: 0.533 L/kg
C=CC(=O)Nc1cccc(C)c1Nc1ncc(OCc2c(F)c(OC)cc(OC)c2F)cn1 [Control example 6]			F (bioavailability; oral absorption ratio) ([1]; female Balb/c nude mice): 0%; AUC(0-t) [1, 3]: 0.388 µM·h; clearance [1, 3]: 186 mL/min/kg; half-life [1, 3]: 14.1 min; Vd [1, 3]: 2.44 L/kg
C=CC(=O)Nc1cccc(C)c1Nc1cnc(/C(F)=C/c2c(Cl)c(OC)cc(OC)c2Cl)cn1 [Example 5]	203		
C=CC(=O)Nc1cc(Cl)cc(F)c1Nc1ccc(/C=C(\F)c2c(Cl)c(OC)cc(OC)c2Cl)cn1 [Example 28]	263	3210	
C=CC(=O)Nc1cccc(C)c1Nc1ccc(/C(F)=C/c2cc(OC)cc(OC)c2)cn1 [Control example 1, reference compound]	8060	> 10000	
C=CC(=O)Nc1cccc(Cl)c1Nc1ccc(/C=C(\F)c2c(Cl)c(OC)cc(OC)c2Cl)cn1 [Example 23]	387		
C=CC(=O)Nc1cc(F)cc(C)c1Nc1ncc(/C=C(\F)c2c(Cl)c(OC)cc(OC)c2Cl)cn1 [Example 30]	238		
C=CC(=O)N[C@@H]1CCC[C@@H]1Nc1ncc(/C=C(\F)c2c(Cl)c(OC)cc(OC)c2Cl)cn1 [Example 25]	476	355	
C=CC(=O)NC1CN(C(C)=O)CC1Nc1ncc(/C=C(\F)c2c(Cl)c(OC)cc(OC)c2Cl)cn1 (stereo not shown) [Example 34]	199		
C=CC(=O)Nc1cccc(C)c1Nc1ncc(OCc2c(Cl)c(OC)cc(OC)c2Cl)cn1 [Control example 5]			F (bioavailability; oral absorption ratio) ([1]; female Balb/c nude mice): 0%; AUC(0-t) [1, 3]: 0.528 µM·h; clearance [1, 3]: 127 mL/min/kg; half-life [1, 3]: 13.3 min; Vd [1, 3]: 1.28 L/kg
C=CC(=O)N[C@H]1COC[C@H]1Nc1ncc(OCc2c(F)c(OC)cc(OC)c2F)cn1 [Control example 7]			Cl (plasma clearance) ([1]; IV tail vein 0.2 mg/kg, female Balb/c nude mice): 65 mL/min/kg; AUC(0-t) [1, 5]: 0.113 µM·h; half-life [1, 5]: 6.54 min; Vd [1, 5]: 0.581 L/kg; bioavailability ([1]; mouse, plasma, PO gavage 1.0 mg/kg vs IV 0.2 mg/kg, female Balb/c nude mice, read-out: F (bioavailability)): 0%
C=CC(=O)Nc1cccc(C)c1Nc1ccc(/C(F)=C(\C)c2c(Cl)c(OC)cc(OC)c2Cl)cn1 [Example 10]	544		
C=CC(=O)Nc1ccc(Cl)c(C)c1Nc1ccc(/C=C(\F)c2c(Cl)c(OC)cc(OC)c2Cl)cn1 [Example 31]	560	> 10000	

More lines, in order of falling IC50 (FGFR4 kinases), values ahead:

IC50 (FGFR4 kinases) [nM]	IC50 (FGFR1 protein kinase) [nM]	SMILES	further results
124	> 10000	C=CC(=O)Nc1cccc(F)c1Nc1ccc(/C(F)=C/c2c(Cl)c(OC)cc(OC)c2Cl)cn1 [Example 6]	
112	> 10000	C=CC(=O)Nc1cccc(C)c1Nc1ccc(/C(F)=C/c2c(Cl)c(OC)cc(OC)c2Cl)cn1 [Example 1]	FGFR4 inhibitory activity enhanced compared with the control example 1 (FGFR4 kinases; ratio to control example 1): 70 times
105	1900	C=CC(=O)Nc1cccc(F)c1Nc1ccc(/C=C(\F)c2c(Cl)c(OC)cc(OC)c2Cl)cn1 [Example 18]	
84	> 10000	C=CC(=O)Nc1cccc(C)c1Nc1ncc(/C(F)=C/c2c(Cl)c(OC)cc(OC)c2Cl)cn1 [Example 2]	
47	3100	C=CC(=O)N[C@H]1COC[C@H]1Nc1ncc(/C=C(\F)c2c(Cl)c(OC)cc(OC)c2Cl)cn1 [Example 19]	FGFR4 inhibitory activity enhancement vs control example (FGFR4 kinases; ratio to control example 3): ~9 times
31	> 10000	C=CC(=O)Nc1cccc(C)c1Nc1ccc(/C=C(\F)c2c(Cl)c(OC)cc(OC)c2Cl)cn1 [Example 7]	TGI % (dosing on Day 21 for the last time) [2]: 108%
30.1	613	C=CC(=O)Nc1ccc(N2CCN(CC)CC2)c(C)c1Nc1ncc(/C=C(\F)c2c(Cl)c(OC)cc(OC)c2Cl)cn1 [Example 13]	
23	174	C=CC(=O)Nc1ccc(OC)c(C)c1Nc1ncc(/C=C(\F)c2c(Cl)c(OC)cc(OC)c2Cl)cn1 [Example 35]	
20.1	4980	C=CC(=O)Nc1cc(N2CCN(CC)CC2)cc(C)c1Nc1ncc(/C(F)=C/c2c(Cl)c(OC)cc(OC)c2Cl)cn1 [Example 11]	
17.7	182	C=CC(=O)Nc1ccc(OCCN2CCN(C)CC2)c(C)c1Nc1ncc(/C=C(\F)c2c(Cl)c(OC)cc(OC)c2Cl)cn1 [Example 14]	
14	2970	C=CC(=O)Nc1cc(N2CCN(CC)CC2)cc(C)c1Nc1ncc(/C=C/c2c(Cl)c(OC)cc(OC)c2Cl)cn1 [Control example 2, reference compound]	
13		C=CC(=O)Nc1cc(N2CCN(C(C)=O)CC2)cc(C)c1Nc1ncc(/C=C(\F)c2c(Cl)c(OC)cc(OC)c2Cl)cn1 [Example 26]	
10.9	25.8	C=CC(=O)Nc1cc(N2CCN(CC)CC2)c(OC)cc1Nc1ncc(/C=C(\F)c2c(Cl)c(OC)cc(OC)c2Cl)cn1 [Example 12]	
10	2100	C=CC(=O)Nc1cccc(C)c1Nc1ncc(/C=C(\F)c2c(Cl)c(OC)cc(OC)c2Cl)cn1 [Example 24]	stability enhanced (plasma clearance) compared with the control example 5 ([1]; IV, mice, ratio to control example 5): 2 times; stability enhanced (plasma clearance) compared with the control example 6 ([1]; IV, mice, ratio to control example 6): more than 3 times; F (bioavailability; oral absorption ratio) ([1]; female Balb/c nude mice): 14.8%; AUC(0-t) [1, 3]: 1.32 µM·h; clearance [1, 3]: 50 mL/min/kg; half-life [1, 3]: 32.9 min; Vd [1, 3]: 1.82 L/kg; AUC(0-t) [1, 4]: 0.962 µM·h; Cmax [1, 4]: 282 nM; Tmax [1, 4]: 30 min
1.58	813	C=CC(=O)Nc1cc(N2CCN(CC)CC2)cc(C)c1Nc1ncc(/C=C(\F)c2c(Cl)c(OC)cc(OC)c2Cl)cn1 [Example 15]	FGFR4 inhibitory activity enhancement vs control example (FGFR4 kinases; ratio to control example 2): ~9 times
